Some test systems named below: SNB-75; LOX IMVI; Malme-3M; NCI-H23; SK-MEL-28; A498; SK-OV-3; CAKI-1; OVCAR-5; ACHN; KM12; SR; K562; NCI/ADR-RES; DU-145; MDA-N.
Assay in all cases: NCI-60 cell line screen, 48 h

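Following 48 hours of exposure in 96-well plates, responses at five concentrations were used to interpolate endpoints linearly. GI50 is the concentration that inhibits growth by half.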 Calls of active or inactive are those of the source. No stated cut-off is given here; in the data, active = GI50 up to about 1.1 µM and inactive = higher.

Turning to `CCCCCCCCCCCCCC(=O)OCC1OC(=O)C(O)C1O` (stereo not drawn), the GI50 in the experiment with SNB-75, in the experiment on LOX IMVI, in the experiment with Malme-3M, in the experiment on NCI-H23, in the experiment with SK-MEL-28 and in the experiment on A498 was > 100 µM (inactive) in each case. Besides, the GI50 in the experiment with SK-OV-3, in the experiment with CAKI-1, in the experiment on OVCAR-5, in the experiment on ACHN, in the experiment with KM12 and in the experiment with SR was > 100 µM (inactive) in each case. The GI50 in the experiment on K562 was 73.8 µM (inactive).

With `COc1cc(OC)cc(C(=O)Cc2c(C(=O)c3ccccc3)c3ccccc3n2C(=O)c2ccccc2)c1`, the GI50 was 7.46 µM (inactive) in the experiment with SNB-75; 31.8 µM (inactive) in the experiment on LOX IMVI; 38.5 µM (inactive) in the experiment with Malme-3M; 14.4 µM (inactive) in the experiment with NCI-H23; 34.4 µM (inactive) in the experiment with SK-MEL-28; 13.2 µM (inactive) with A498. Further, the GI50 was 22.8 µM (inactive) in the experiment with SK-OV-3; 50.5 µM (inactive) in the experiment with CAKI-1; > 100 µM (inactive) in the experiment on OVCAR-5; 33 µM (inactive) in the experiment on ACHN; 33.7 µM (inactive) in the experiment on KM12; 14.2 µM (inactive) with SR. For the same compound, the GI50 in the experiment with K562 is 16.7 µM (inactive).

Turning to `COc1ccc(/C=C(\Cl)c2ccc(OC)cc2)cc1`, the GI50 in the experiment with SNB-75, in the experiment on LOX IMVI, with Malme-3M, with NCI-H23, with SK-MEL-28 and with A498 was > 100 µM (inactive) each time. For the same compound, the GI50 was 0.325 µM (active) in the experiment with SK-OV-3; > 100 µM (inactive) in the experiment on CAKI-1; > 100 µM (inactive) in the experiment with OVCAR-5; > 100 µM (inactive) in the experiment with ACHN; > 100 µM (inactive) in the experiment on KM12; > 100 µM (inactive) in the experiment on SR. In the experiment on K562, the GI50 is > 100 µM (inactive).

In the case of `COc1ccc(CCCN2c3ccccc3Sc3ccccc32)cc1`, the GI50 in the experiment with SNB-75 is > 100 µM (inactive); with LOX IMVI, 52.8 µM (inactive); with Malme-3M, > 100 µM (inactive); in the experiment with NCI-H23, > 100 µM (inactive); with SK-MEL-28, > 100 µM (inactive); in the experiment on A498, > 100 µM (inactive). The GI50 in the experiment on SK-OV-3 was > 100 µM (inactive); in the experiment on CAKI-1, > 100 µM (inactive); in the experiment with OVCAR-5, > 100 µM (inactive); with ACHN, > 100 µM (inactive); in the experiment on KM12, > 100 µM (inactive); in the experiment on K562, 17.3 µM (inactive).

For the compound `COC(=O)CC(=O)NCC1=CCC(=O)CC1`, the GI50 in the experiment with SNB-75, in the experiment with LOX IMVI, in the experiment on Malme-3M, in the experiment on NCI-H23, in the experiment with SK-MEL-28 and in the experiment with A498 was > 100 µM (inactive) in each case. For the same compound, the GI50 in the experiment on SK-OV-3, in the experiment with CAKI-1, with KM12 and with K562 was > 100 µM (inactive) each time.

Take `C[P+]1(Cc2ccccc2)CCCC1`: the GI50 in the experiment with SNB-75 was > 100 µM (inactive); in the experiment with LOX IMVI it was > 100 µM (inactive); with Malme-3M, 62.8 µM (inactive); in the experiment with NCI-H23, > 100 µM (inactive); in the experiment with SK-MEL-28 it was > 100 µM (inactive); with A498 it was > 100 µM (inactive). In addition, the GI50 with SK-OV-3, in the experiment on OVCAR-5, in the experiment on ACHN, in the experiment with KM12, in the experiment with SR and with K562 was > 100 µM (inactive) each time.

With `O=C(COc1ccc(Cl)cc1)N1N=C(c2ccc(Cl)cc2)CC1(O)c1ccccc1` (stereo not drawn), the GI50 in the experiment with SNB-75 was 29.9 µM (inactive); in the experiment with LOX IMVI, 12.6 µM (inactive); in the experiment on Malme-3M it was 20.2 µM (inactive); with NCI-H23, 13.1 µM (inactive); in the experiment on SK-MEL-28 it was 18.2 µM (inactive); in the experiment with A498 it was 13.5 µM (inactive). The GI50 in the experiment with SK-OV-3 was 19.5 µM (inactive); in the experiment with CAKI-1, 20.9 µM (inactive); in the experiment with OVCAR-5 it was 21.7 µM (inactive); with ACHN it was 9.04 µM (inactive); in the experiment on KM12, 14.2 µM (inactive); in the experiment with SR, 3.69 µM (inactive). The GI50 in the experiment on K562 was 9.73 µM (inactive).

Turning to `CC1=C[C@H]2C[C@@]3(C)O[C@@H]([C@]4(C)CC[C@H]([C@@H](C)C(=O)O)OO4)CC3C(C)(C)[C@H]2CC1` (stereo partly drawn), the GI50 in the experiment with SNB-75 is 1.08 µM (active); in the experiment on LOX IMVI, 0.161 µM (active); in the experiment with Malme-3M, 0.849 µM (active); in the experiment on NCI-H23, 1.91 µM (inactive); in the experiment with SK-MEL-28, 1.56 µM (inactive); with CAKI-1, 1.49 µM (inactive). For the same compound, the GI50 in the experiment on OVCAR-5 was 3.16 µM (inactive); in the experiment with ACHN it was 1.57 µM (inactive); in the experiment on KM12, 0.397 µM (active).

Consider `O=C1C=CC(=O)N1Nc1ccc([N+](=O)[O-])cc1[N+](=O)[O-]`, for which the GI50 in the experiment on SNB-75 is > 100 µM (inactive); in the experiment with LOX IMVI it was > 100 µM (inactive); with Malme-3M, 16.8 µM (inactive); in the experiment on NCI-H23, > 100 µM (inactive); in the experiment with SK-MEL-28, > 43.4 µM (inactive); with A498, 62.1 µM (inactive). For the same compound, the GI50 is > 100 µM (inactive) in the experiment on SK-OV-3; > 47.9 µM (inactive) in the experiment on CAKI-1; > 100 µM (inactive) in the experiment on OVCAR-5; > 100 µM (inactive) in the experiment on ACHN; > 100 µM (inactive) in the experiment with KM12; > 38.5 µM (inactive) with SR. In addition, the GI50 in the experiment with K562 is > 42.4 µM (inactive).

Regarding `N#C[BH2-][n+]1cn(C2CC(O)C(COP(=O)(O)OC3CC(n4ccc(N)nc4=O)OC3CO)O2)c2nc(N)[nH]c(=O)c21` (stereo not drawn), the GI50 in the experiment with SNB-75, in the experiment with NCI/ADR-RES, with DU-145, with Malme-3M, in the experiment with NCI-H23 and in the experiment with A498 was > 100 µM (inactive) throughout. Moreover, the GI50 in the experiment with CAKI-1, with OVCAR-5, in the experiment with ACHN, in the experiment with MDA-N, in the experiment with KM12 and with SR was > 100 µM (inactive) throughout. Moreover, the GI50 in the experiment on K562 was 10 µM (inactive).

Take `CC(=O)C1C(=O)NC(=O)C1=O` (stereo not drawn): the GI50 in the experiment on SNB-75, in the experiment on LOX IMVI, in the experiment with Malme-3M, with NCI-H23, in the experiment on SK-MEL-28 and with A498 was > 100 µM (inactive) throughout. Besides, the GI50 in the experiment on SK-OV-3, in the experiment with CAKI-1, in the experiment with OVCAR-5, in the experiment with ACHN, with KM12 and in the experiment with K562 was > 100 µM (inactive) throughout.

(Values after ChEMBL document CHEMBL1201862, “PubChem BioAssay data set” (2004).)
